Key:
HepG2 cells = assay: Nexin assay for apoptosis, 24 h Q10; type: cell-based; conditions: 50 μM Q10, 24 hours
Description: (§1) The 7AAD dye will enter into cells with permeabilized cell membranes; primarily those cells that are in late apoptosis. Annexin-V-PE is a dye that binds to Phosphotidyl serine, which is exposed on the outer surface of the plasma membrane in early apoptotic cells. The Nexin reagent thus can be used to differentiate between different populations of apoptotic cells in a flow cytometer.

MCF-7 cells = assay: Nexin assay for apoptosis, 24 h Q10; type: cell-based; conditions: 50 μM and 100 μM Q10, 24 hours
Description: as §1

PC-3 cells = assay: Nexin assay for apoptosis, 24 h Q10; type: cell-based; conditions: 50 μM and 100 μM Q10, 24 hours; increase less than in PaCa2
Description: as §1

HepG2 liver cancer cells = assay: ApoStrand ELISA apoptosis assay (single-stranded DNA); type: cell-based
Description: The ApoStrand™ ELISA is based on the sensitivity of DNA in apoptotic cells to formamide denaturation and the detection of the denatured DNA with a monoclonal antibody to single-stranded DNA (ssDNA).

SCC cells = assay: Real-time PCR Heat Shock Protein Array; type: cell-based; conditions: 100 μM
Description: The control cells were untreated cells.
Heat Shock Arrays were run for SCC cells and the data of regulated genes is summarized below in Table 13.

[1] = tested on: Pancreatic Cancer Cells (PaCa2); assay: Real-time PCR Angiogenesis Array; type: cell-based; conditions: 100 uM Q10, various times
Protocol: (§2) Experiments were carried out essentially as described above.

[2] = tested on: Pancreatic Cancer Cells (PaCa2); assay: Real-time PCR Apoptosis Array; type: cell-based; conditions: 100 uM Q10, various times
Protocol: as §2

[3] = tested on: HepG2 (liver cancer) cells; assay: PCR Apoptosis Array; type: cell-based
HDFa cells = assay: Oxygen consumption rate (OCR), SeaHorse XF analyzer; type: cell-based, human; conditions: presence of CoQ10
Description: (§3) Environmental influencers (e.g., MIMs or Epi-shifters) may also be identified by changes in cellular energetics. One example of the measurement of cellular energetics are the real-time measures of the consumption of molecular oxygen and/or the change in pH of the media of a cell culture. For example, the ability of a potential epi-shifter to modulate the metabolic state of a cell may be analyzed using, for example, the XF24 Analyzer (Seahorse, Inc.). This technology allows for real time detection of oxygen and pH changes in a monolayer of cells in order to evaluate the bioenergetics of a cell microenvironment. The XF24 Analyzer measures and compares the rates of oxygen consumption (OCR), which is a measure of aerobic metabolism, and extracellular acidification (ECAR), which is a measure of glycolysis, both key indicators of cellular energetics.
(§4) (SeaHorse Biosciences Inc, North Billerica, Mass.).
In this experiment, the OCR and extracellular acidification rate (ECAR) in normal cells lines were obtained in the presence and absence of CoQ10 to determine baseline values. It was observed that in its native nutrient environment, the basal OCR rates in normal cells lines are different, and are usually a function of the physiological roles of the cells in the body. […]

HASMC cells = assay: Extracellular acidification rate (ECAR), SeaHorse XF analyzer; type: cell-based, human; conditions: hyperglycemic HASMC cells in hypoxic conditions
Description: as §3, §4
In this experiment, the OCR and extracellular acidification rate (ECAR) in normal cells lines were obtained in the presence and absence of CoQ10 to determine baseline values. It was observed that in its native nutrient environment, the basal OCR rates in normal cells lines are different, and are usually a function of the physiological roles of the cells in the body.
In Table 52 the measured baseline ECAR values (mpH/min) in HASMC were higher compared to that of HDFa. […]

PaCa-2 cells = assay: as above; type: cell-based; conditions: normoxia, high glucose (17 mM)
Description: as §3, §4
In contrast to normal cells, cancer cells are phenotypically primed to use high glucose for ATP generation (enhanced glycolysis) resulting in higher ECAR (Table 53, ECAR for untreated normoxia 17 mM) at 21 mpH/min. […] The associated decrease in OCR in these cells was likely associated with increased efficiency of the mitochondrial OXPHOS.

[4] = rats, oral; cited from earlier work

COC1=C(OC)C(=O)C(C/C=C(\C)CC/C=C(\C)CC/C=C(\C)CC/C=C(\C)CC/C=C(\C)CC/C=C(\C)CC/C=C(\C)CC/C=C(\C)CC/C=C(\C)CCC=C(C)C)=C(C)C1=O [Q10, Coenzyme Q10]
increase of gated population in late and early apoptotic stages (HepG2 cells): about 20%
early/late apoptotic population (MCF-7 cells): increase only in early apoptotic population
early and late apoptotic population (PC-3 cells): increase in both early and late apoptotic population
detectable apoptosis (ApoStrand ELISA) (HepG2 liver cancer cells; 50 μM Q10): 17%
detectable apoptosis (ApoStrand ELISA) (HepG2 liver cancer cells; 100 μM Q10): 32%
DNAJA1 gene Regulation (SCC cells; at 6 hours): Up regulated at 6
DNAJB5 gene Regulation (SCC cells; at 6 hours): Down regulated
DNAJB13 gene Regulation (SCC cells; at 6 hours): Down regulated
DNAJC4 gene Regulation (SCC cells; at 6 hours): Down regulated
DNAJC5B gene Regulation (SCC cells; at 6 hours): Down regulated
DNAJC12 gene Regulation (SCC cells; at 6 hours): Down regulated
HSPA8 gene Regulation (SCC cells; at 6 hours): Up regulated at 6
HSPH1 gene Regulation (SCC cells; at 6 hours): Up regulated at 6
CCT6B gene Regulation (SCC cells; at 24 hours): Down regulated
genes modulated by Q10 treatment (Angiogenesis arrays) [1]: AKT1, ANGPTL4, ANGPEP, CCL2, CDH4, CXCL1, EDG1, EFNA3, EFNB2, EGF, FGF1, ID3, IL1B, 1L8, KDR, NRP1, PECAM1, PROK2, SERPINF1, SPHK1, STAB1, TGFB1, VEGFA and VEGFB
genes modulated by Q10 treatment (Apoptosis arrays) [2]: ABL1, AKT1, Bcl2L1, BclAF1, CASP1, CASP2, CASP6, CIDEA, FADD, LTA, TNF, TNFSF10A and TNFSF10
BAG1 mRNA downregulated over control ([3]; 100 uM Q10, 16 hours): approximately 6 fold
CASP9 mRNA upregulated over control ([3]; 100 uM Q10, 16 hours): approximately 61 fold
TNFRSF1A mRNA downregulated over control ([3]; 100 uM Q10, 16 hours): ~4 fold
BAG1 mRNA upregulated over control ([3]; 100 uM Q10, 48 hours): ~1 fold
CASP9 mRNA upregulated over control ([3]; 100 uM Q10, 48 hours): approximately 55 fold
TNFRSF1A mRNA upregulated over control ([3]; 100 uM Q10, 48 hours): ~1 fold
OCR (HDFa cells): influenced OCR
ECAR rates (HASMC cells): downward trend
ECAR rates (PaCa-2 cells): significant decrease
orally-administered CoQ10 absorbed [4]: 2-3%

— patent US20110020312A1, “METHODS FOR TREATMENT OF METABOLIC DISORDERS USING EPIMETABOLIC SHIFTERS, MULTIDIMENSIONAL INTRACELLULAR MOLECULES, OR ENVIRONMENTAL INFLUENCERS” (priority 2009, published 2011)
